Test results as given in a melting point compilation (Tetko et al.; mined from patent text by program, amines drawn as free bases though some values may be those of a salt).

Row | Compound | melting point [°C]
1 | O=[N+]([O-])c1cccc(-c2nc(Nc3ccccc3)cc3cccnc23)c1 | 158 to 160
2 | Cc1oc(-c2ccccc2)nc1COc1ccc(OCc2ncccc2CC(=O)O)cc1 | 126 to 127
3 | COC(=NS(=O)(=O)c1nc(-c2ccccc2)ns1)C(C)C | 123 to 124
4 | Cc1cccc2c1N(C(=O)OC(C)(C)C)CC(=O)N2 | 175 to 177
5 | O=C(NCc1ccc(Cl)cc1)c1cn(Cc2cccnc2)c2sc(CN3CCOCC3)cc2c1=O | 214 to 215
6 | O=C1CCN(CC=Cc2ccccc2)CC1C(c1ccccc1)c1ccccc1 (centres undefined) | 114 to 115
7 | CCc1nc2c(N)nc3c(c2n1CCCCS(=O)(=O)NC)CCCC3 | 166 to 170
8 | CCOC(=O)c1cnc(NN)nc1-c1ccccc1 | 74 to 75
9 | Cc1c[nH]c(=O)c2ccccc12 | 175 to 176
10 | COC(=O)C=CN1c2ccccc2Sc2nccnc21 | 165 to 169
11 | COc1ccc2nccc(NC(=O)N3CCN(CCc4cnc5ccccc5n4)CC3)c2n1 | 138 to 140
12 | CN(Cc1ccccc1)c1ncnc2c(N3CCOCC3)nc(N3CCC(NCc4ccccc4)CC3)nc12 | 103 to 106
13 | CCCN(CCCCc1c[nH]c2ccc(F)cc12)C1COc2c(F)ccc(C(=O)NC)c2C1 (centres undefined) | 110
14 | COc1cc(C=CC(=O)C=Cc2cc(OC)cc(OC)c2)cc(OC)c1 | 124 to 126
15 | CC(COc1c(-c2ccccc2)c(=O)oc2ccccc12)CN1CCCCC1 (centres undefined) | 86 to 87
16 | CN(C)C=Nc1ccc(-c2ccc(C(F)(F)F)cc2)cn1 | 154
17 | O=C(Nc1ccc2[nH]c(=O)[nH]c2c1)C(=O)N1CCC(Oc2ccc(Cl)cc2)CC1 | 286 to 288
18 | CC#CCOc1ccc(S(=O)(=O)N(C)[C@H]2CCC[C@H]2C(=O)NO)cc1 | 160 to 164
19 | COC(=O)C(C(=O)OC)C(=O)C(C)Oc1ccc(Oc2ccc(C(F)(F)F)cc2)cc1 (centres undefined) | 40 to 44
20 | CC(C)=Cc1sc(C#N)c2c1C(=O)CC(C)(C)C2 | 115 to 117
21 | c1ccc(-c2nc3ccccc3o2)nc1 | 105 to 107
22 | CCCc1nc(N)c(C(=O)OCC)[nH]1 | 111 to 114
23 | CC(=O)NCCNC(=O)c1ccc(Br)s1 | 244 to 245
24 | COC(=O)NC=Cc1ccc(OCC(O)CNC(C)CC#N)cc1 (centres undefined) | 122 to 123
25 | Cc1c(C#N)c(-c2ccc(C#N)cc2)c(C)n1Cc1cnc(Cl)c(C(O)C(F)(F)F)c1 (centres undefined) | 200 to 201

Row | Compound | melting point [°C]
26 | O=C(NCC1(c2ccccc2)CCCCC1)Nc1cccc(C(F)(F)F)c1 | 147 to 151
27 | COc1ccccc1C(=O)N1CCCC(=O)c2ccc(Cl)cc2CCC1=O | 179
28 | Cc1ccc(S(=O)(=O)n2cc(CCN(Cc3ccccc3)Cc3ccccc3)c3ccccc32)cc1 | 116 to 118
29 | O=C(O)c1cccc(Oc2ncc(C(F)(F)F)cc2Cl)c1 | 158
30 | COc1c(Cl)cc(C(=O)Cl)cc1Cl | 153 to 157
31 | Clc1ccccc1CSc1nnc(-c2ccc3c(c2)CCO3)o1 | 140 to 141
32 | c1ccc2c(c1)nnn2CSCn1nnc2ccccc21 | 179 to 181
33 | CC(C)(C)C1=NN(c2ccc(C(=O)O)cc2)C(c2ccc(Cl)cc2)C1 (centres undefined) | 208
34 | CC(C)(C)C(NC(=O)c1ccc(Cl)cc1)NC(=NC#N)Nc1cccnc1 (centres undefined) | 194 to 195
35 | CCCCCCCCCCCCCCCCC[C@@H]1OC[C@@H](COCCCCCCCCOS(=O)(=O)c2ccc(C)cc2)O1 (relative stereo) | 45.9 to 50.8
36 | COc1cc2c(Nc3ccc(C)c(OC(C)=O)c3)ncnc2cc1OCc1ccncc1 | 201 to 202
37 | COc1cccc(CC(=O)O)c1OCCCn1cc(C(=O)NCc2ccc(Cl)cc2Cl)c(OC(C)C)n1 | 134 to 135
38 | CCOC(=O)c1sc(-n2cn[nH]c2=O)nc1C | 165 to 167
39 | Cc1cc(S(N)(=O)=O)ccc1-n1nc(C(F)(F)F)cc1-c1ccc(-c2ccco2)cc1 | 87 to 89
40 | CCCCCCCCCCCNC(=O)N(C)CC(O)C(O)C(O)C(O)CO (centres undefined) | 109
41 | O=C1CCC2CCCC3CC(=O)N1C23 (centres undefined) | 118 to 120
42 | COC1CC(C)(OCc2ccccc2)C2COC1O2 (centres undefined) | 45 to 46
43 | O=C1c2[nH]c3cc(Cl)ccc3c2Oc2ccccc2N1Cc1ccccc1 | 259 to 261
44 | COc1cc(COc2nn(-c3ccccc3)cc2C(=O)O)ccc1OCc1nc(-c2ccco2)oc1C | 184 to 185
45 | CCCCNC(=O)Oc1ccc(Oc2ccc(C)cc2)cc1 | 64 to 66
46 | Cc1nc(N2CCN(Cc3ccc(OC(F)(F)F)cc3)C2=O)sc1C(=O)NCCC1CC1 | 195 to 196
47 | CCC(=O)c1ccc(OCCCCl)cc1 | 41 to 43
48 | CN1CCc2cc(O)c(O)c(Sc3ccc([N+](=O)[O-])cc3)c2CC1 | 125 to 127
49 | CC(=O)Nc1cccc(-c2cnc3c(c2)nc(-c2cccnc2N)n3-c2ccc(CNC(=O)c3ccccc3)cc2)c1 | 76 to 81
50 | COc1cc(OCCCN2CCC[C@H]2C)ccc1-c1ccc(=O)[nH]n1 | 182 to 186

Row | Compound | melting point [°C]
51 | O=C(CCCCCCCCCCCCCCCO)OCOC(=O)CCCCCCCCCCCCCCCO | 96.2
52 | CCC(c1oc2ccccc2c(=O)c1-c1ccccc1)n1cnc2c(N)ncnc21 (centres undefined) | 223 to 225
53 | O=c1c2ccccc2nnn1CCN1CC=C(c2c[nH]c3ccccc23)CC1 | 230
54 | O=C(CN1CCCCC1)Nc1ccc([N+](=O)[O-])cc1 | 144 to 145
55 | CC(=O)N1CCc2c(cccc2NS(=O)(=O)c2ccccc2)C1 | 131 to 132
56 | CC1(C(=O)O)CC1(F)F (centres undefined) | 59 to 61
57 | CCOC(=O)c1cn(C2CC2)c2nc(N3C[C@@H](CNC(C)=O)[C@H](F)C3)c(F)cc2c1=O (relative stereo) | 211 to 213
58 | CC(=O)OC(C)c1ncnc(Cl)c1I (centres undefined) | 55 to 58
59 | COCCCc1cc(N(C)Cc2sc(-c3ccc(C(F)(F)F)cc3)nc2C)ccc1OCC(=O)O | 142 to 143
60 | CC1(C)OCCCOc2c[nH]cc2OCCCOC1(C)C | 48 to 50
61 | Clc1nc(-n2cnc(-c3ccccc3)c2-c2ccccc2)c2ccccc2c1-c1ccccc1 | 195 to 196
62 | O=C1Cc2cc(C(F)(F)F)ccc2N1 | 188 to 190
63 | C=C(CNNC(=O)OC(C)(C)C)c1ccccc1 | 153 to 154
64 | CCCCCCCC(=O)N(C)Cc1cc(-c2ccc(C=C3SC(=O)NC3=O)cc2)ccc1OCc1ccccc1 | 158
65 | CNC(C)=Nc1ccc(-c2c[nH]cn2)cc1 | 226 to 227
66 | Cc1cn(NCCCc2ccncc2F)c2ccc(OCc3ccccc3)cc12 | 94 to 96
67 | C[C@@H]1CN(CC=CC(=O)Nc2cc3c(Nc4ccc(F)c(Cl)c4)ncnc3cc2O[C@@H]2CCOC2)CC(=O)O1 | 230
68 | COC(=O)[C@H](O)Cc1ccccc1 | 46 to 47
69 | Clc1cc(Cl)n2nc(SCc3ccccc3)nc2c1 | 88 to 89
70 | CCOC(=O)c1c(COC(C)=O)cccc1S(=O)(=O)NC(=O)Nc1nc(OC)cc(OC)n1 | 162 to 163
71 | CC(=O)Nc1ccc(C(=O)O)cc1OCCO | 208
72 | CCOc1nn(-c2ccc(C(F)(F)F)cn2)cc1CCCOc1ccccc1CCC(=O)O | 93 to 94
73 | Cc1noc(NC(=O)N2CCN(c3nccc(-c4ccc(F)c(F)c4)n3)CC2)c1C | 214 to 215
74 | CCN1CCCC1CNC(=O)c1c(C)[nH]c(C=O)c1C (centres undefined) | 166 to 169
75 | Cc1nc(Cn2c(=O)sc3cc(F)c([N+](=O)[O-])cc32)no1 | 192 to 193

Row | Compound | melting point [°C]
76 | CC1OC(Cn2cncn2)(c2ccccc2)C1(C)C (centres undefined) | 102
77 | CC1OCC(=O)N(C(=O)O)C1c1ccc(F)c(F)c1 (single isomer, unassigned; (+)) | 191 to 194
78 | CC(=O)c1ccc(CNS(=O)(=O)c2ccc(C)cc2)cc1 | 125 to 128
79 | CCCCCn1cc(C(=O)O)c(=O)cc1C | 126
80 | NS(=O)(=O)c1cc(CCNC(=O)C=Cc2cccs2)ccc1OCC1CCCCO1 (centres undefined) | 106
81 | CC(C)(O)CCOc1c(-c2ccc(S(C)(=O)=O)cc2)cnn(-c2ccc(F)cc2)c1=O | 133 to 134
82 | Nc1ccc(N2CCN(Cc3ccccc3)CC2)cc1C(=O)O | 242
83 | Fc1ccc(C2=C(c3ccccc3)N(C(F)(F)F)CO2)cc1F | 146 to 148
84 | Cn1c(=O)cc(CCCl)c2cc(Cl)ccc21 | 120 to 122
85 | COC(=O)Cc1cc(O)nn1C | 147 to 148
86 | CCOP(=O)(OCC)c1ccc(NC(=O)CCc2oc(-c3ccccc3)nc2-c2ccc(Cl)cc2)cc1 | 139 to 140
87 | CC(=O)NCc1ccc(CN2CCN(c3nccc(N(C)C)n3)CC2)cc1 | 152 to 155
88 | CN(C)c1ccc2c(c1)C(C)(C)C1(C=Cc3cc([N+](=O)[O-])ccc3S1)N2C (centres undefined) | 166 to 167
89 | CCOC(=O)c1nnc2c3ccc(Cl)cc3c(-c3ccccc3)nn12 | 266 to 268
90 | CCCN(CCC)S(=O)(=O)c1cc(-c2csc(=Nc3cc(Cl)c(OC)cc3OC)n2C)ccc1Cl | 173 to 175
91 | O=C(c1ccccc1)N1CC2C(C1)C2N(C(=O)c1ccccc1)c1ncc2cc(-c3ccccc3Cl)c(=O)n(C3CC3)c2n1 (centres undefined) | 124 to 130
92 | COc1cnc(OC)n2nc(NS(=O)(=O)c3c(F)cccc3C(F)(F)F)nc12 | 201 to 203
93 | CC1COc2ccccc2O1 (centres undefined) | 86 to 87
94 | CCn1cc(C(=O)O)c(=O)c2ccc(C=NNc3ccc(O)cc3)nc21 | 300
95 | Cc1c(C(=O)c2cnn(C(C)(C)C)c2O)ccc(S(C)(=O)=O)c1-c1ccc(S(C)(=O)=O)cc1 | 187 to 188
96 | Cc1nn(-c2ccccn2)c2c1c(=O)c1ccccc1n2C | 192 to 193
97 | CCOC(=O)C1=C(C)NC(c2ccc(OC)cc2)=C(C(=O)OCC)C1c1cccc([N+](=O)[O-])c1 (centres undefined) | 166 to 167
98 | Fc1cccc(CSc2nnc(-c3ccc4nccn4c3)o2)c1 | 173 to 174
99 | CCCS(=O)(=O)Oc1ccc(-c2nc3cc4c(cc3[nH]2)C(C)(C)CC(=O)N4)cc1 | 148 to 156
